Experimental data as given in paper PMC7753147, “High-throughput determination of protein affinities using unmodified peptide libraries in nanomolar scale” (iScience, 2020).

Assays:
native geph = test: µSPOT peptide microarray binding assay with native geph from mouse brain lysate
FL-geph = test: µSPOT peptide microarray binding assay with full-length geph; conditions: µSPOT peptide microarray, GlyRβ full positional scan, intensity normalised to wild-type sequence DLRSNDFSIVGSLPR (=1)
gephE = test: µSPOT peptide microarray binding assay with recombinant gephE
[1] = µSPOT peptide microarray, GlyRβ full positional scan, native geph from mouse brain lysate, intensity normalised to wild-type sequence DLRSNDFSIVGSLPR (=1)
[2] = µSPOT peptide microarray, GlyRβ full positional scan, recombinant gephE, intensity normalised to wild-type sequence DLRSNDFSIVGSLPR (=1)
[3] = overlapping GABAAR α3 peptide library on µSPOT array, 6% mouse brain lysate, normalized to most prominent spot, n = 2 array-internal duplicate
[4] = overlapping GABAAR α3 peptide library on µSPOT array, 20 nM gephE, normalized to most prominent spot, n = 2 array-internal duplicate
[5] = overlapping GlyR β peptide library on µSPOT array, 3% mouse brain lysate, normalized to most prominent spot, n = 2 array-internal duplicate
[6] = overlapping GlyR β peptide library on µSPOT array, 50 nM gephE, anti-gephyrin 3B11/HRP chemiluminescence, normalized to most prominent spot, n = 2 array-internal duplicate

| Sequence | Native geph Binding Intensity [norm.] (native geph; [3]) | gephE Binding Intensity [norm.] (gephE; [4]) | Native geph Binding Intensity [norm.] (native geph; [5]) | gephE Binding Intensity [norm.] (gephE; [6]) | also measured |
| --- | --- | --- | --- | --- | --- |
| ALRSNDFSIVGSLPR [GlyRβ_Full_Positional_Scan_001] |  |  |  |  | Native geph Binding Intensity [norm.] (native geph; [1]): 0.77 norm.; Fl-geph Binding Intensity [norm.] (FL-geph): 1.11 norm.; gephE Binding Intensity [norm.] (gephE; [2]): 1.06 norm. |
| CLRSNDFSIVGSLPR [GlyRβ_Full_Positional_Scan_017] |  |  |  |  | Native geph Binding Intensity [norm.] (native geph; [1]): 0.99 norm.; Fl-geph Binding Intensity [norm.] (FL-geph): 0.88 norm.; gephE Binding Intensity [norm.] (gephE; [2]): 1.12 norm. |
| DARSNDFSIVGSLPR [GlyRβ_Full_Positional_Scan_021] |  |  |  |  | Native geph Binding Intensity [norm.] (native geph; [1]): 0.95 norm.; Fl-geph Binding Intensity [norm.] (FL-geph): 1.04 norm.; gephE Binding Intensity [norm.] (gephE; [2]): 1.01 norm. |
| DCRSNDFSIVGSLPR [GlyRβ_Full_Positional_Scan_037] |  |  |  |  | Native geph Binding Intensity [norm.] (native geph; [1]): 1.22 norm.; Fl-geph Binding Intensity [norm.] (FL-geph): 0.9 norm.; gephE Binding Intensity [norm.] (gephE; [2]): 0.95 norm. |
| DDRSNDFSIVGSLPR [GlyRβ_Full_Positional_Scan_030] |  |  |  |  | Native geph Binding Intensity [norm.] (native geph; [1]): 0.9 norm.; Fl-geph Binding Intensity [norm.] (FL-geph): 1.26 norm.; gephE Binding Intensity [norm.] (gephE; [2]): 1.07 norm. |
| DERSNDFSIVGSLPR [GlyRβ_Full_Positional_Scan_031] |  |  |  |  | Native geph Binding Intensity [norm.] (native geph; [1]): 0.92 norm.; Fl-geph Binding Intensity [norm.] (FL-geph): 1.01 norm.; gephE Binding Intensity [norm.] (gephE; [2]): 0.98 norm. |
| DFRSNDFSIVGSLPR [GlyRβ_Full_Positional_Scan_027] |  |  |  |  | Native geph Binding Intensity [norm.] (native geph; [1]): 0.91 norm.; Fl-geph Binding Intensity [norm.] (FL-geph): 0.99 norm.; gephE Binding Intensity [norm.] (gephE; [2]): 0.98 norm. |
| DGRSNDFSIVGSLPR [GlyRβ_Full_Positional_Scan_022] |  |  |  |  | Native geph Binding Intensity [norm.] (native geph; [1]): 0.92 norm.; Fl-geph Binding Intensity [norm.] (FL-geph): 0.94 norm.; gephE Binding Intensity [norm.] (gephE; [2]): 0.98 norm. |
| DHRSNDFSIVGSLPR [GlyRβ_Full_Positional_Scan_033] |  |  |  |  | Native geph Binding Intensity [norm.] (native geph; [1]): 0.98 norm.; Fl-geph Binding Intensity [norm.] (FL-geph): 0.95 norm.; gephE Binding Intensity [norm.] (gephE; [2]): 0.91 norm. |
| DIRSNDFSIVGSLPR [GlyRβ_Full_Positional_Scan_023] |  |  |  |  | Native geph Binding Intensity [norm.] (native geph; [1]): 1.16 norm.; Fl-geph Binding Intensity [norm.] (FL-geph): 1.12 norm.; gephE Binding Intensity [norm.] (gephE; [2]): 0.95 norm. |
| NLAKDTEFSTISKSAAAPSA [GABAAR α3 residues 405-424, µSpot library] | 0.122 | 0.029 |  |  |  |
| NNGLGKPQAKNKKPPPAKPV [Glycine receptor subunit beta_033, GlyR β residues 445-464] |  |  | 0.041 | 0.055 |  |
| NNPKRVEAEKARIAKAEQAD [Glycine receptor subunit beta_003, GlyR β residues 355-374] |  |  | 0.109 | 0.023 |  |
| NYFTKRSWAWEGKKVPEALE [GABAAR α3 residues 360-379, µSpot library] | 0.048 | 0.062 |  |  |  |
| PEALEMKKKTPAAPTKKNTT [GABAAR α3 residues 375-394, µSpot library] | 0.071 | 0.038 |  |  |  |
| PRDFELSNYDCYGKPIEVNN [Glycine receptor subunit beta_027, GlyR β residues 427-446] |  |  | 0.521 | 0.428 |  |
| SASSTPTAIASPKATYVQDS [GABAAR α3 residues 423-442, µSpot library] | 0.075 | 0.022 |  |  |  |
| SIVGSLPRDFELSNYDCYGK [Glycine receptor subunit beta_025, GlyR β residues 421-440] |  |  | 0.301 | 0.291 |  |
| STPTAIASPKATYVQDSPAE [GABAAR α3 residues 426-445, µSpot library] | 0.067 | 0.019 |  |  |  |
| SWAWEGKKVPEALEMKKKTP | 0.118 | 0.064 |  |  |  |
| TISKSAAAPSASSTPTAIAS [GABAAR α3 residues 414-433, µSpot library] | 0.116 | 0.024 |  |  |  |
| TKRSWAWEGKKVPEALEMKK | 0.033 | 0.049 |  |  |  |
| TLQVGETRCKKVCTSKSDLR [Glycine receptor subunit beta_017, GlyR β residues 397-416] |  |  | 0.054 | 0.016 |  |
| TPAAPTKKNTTFNIVGTTYP [GABAAR α3 residues 384-403, µSpot library] | 1.000 | 0.948 |  |  |  |
| TPVHISTLQVGETRCKKVCT [Glycine receptor subunit beta_015, GlyR β residues 391-410] |  |  | 0.060 | 0.013 |  |
| TRCKKVCTSKSDLRSNDFSI [Glycine receptor subunit beta_019, GlyR β residues 403-422] |  |  | 0.089 | 0.033 |  |
| TTFNIVGTTYPINLAKDTEF [GABAAR α3 residues 393-412, µSpot library] | 0.538 | 0.457 |  |  |  |
| TVNGTGTPVHISTLQVGETR [Glycine receptor subunit beta_013] |  |  | 0.087 | 0.008 |  |
| VVQVMLNNPKRVEAEKARIA [Glycine receptor subunit beta_001, GlyR β residues 349-368] |  |  | 0.081 | 0.017 |  |
| YVQDSPAETKTYNSVSKVDK [GABAAR α3 residues 438-457, µSpot library] | 0.058 | 0.073 |  |  |  |

More lines, main results first:

| Native geph Binding Intensity [norm.] (native geph; [3]) | gephE Binding Intensity [norm.] (gephE; [4]) | Native geph Binding Intensity [norm.] (native geph; [5]) | gephE Binding Intensity [norm.] (gephE; [6]) | Sequence | also measured |
| --- | --- | --- | --- | --- | --- |
|  |  | 0.087 | 0.012 | PQAKNKKPPPAKPVIPTAAK [Glycine receptor subunit beta_035, GlyR β residues 451-470] |  |
|  |  | 0.204 | 0.216 | SNYDCYGKPIEVNNGLGKPQ [Glycine receptor subunit beta_029, GlyR β residues 433-452] |  |
| 0.060 | 0.018 |  |  | TAIASPKATYVQDSPAETKT [GABAAR α3 residues 429-448, µSpot library] |  |
|  |  | 0.074 | 0.011 | VGETRCKKVCTSKSDLRSND [Glycine receptor subunit beta_018, GlyR β residues 400-419] |  |
|  |  | 0.082 | 0.010 | VMLNNPKRVEAEKARIAKAE [Glycine receptor subunit beta_002, GlyR β residues 352-371] |  |
| 0.105 | 0.048 |  |  | WEGKKVPEALEMKKKTPAAP [GABAAR α3 residues 369-388, µSpot library] |  |
| 0.114 | 0.039 |  |  | YPINLAKDTEFSTISKSAAA [GABAAR α3 residues 402-421, µSpot library] |  |
